In US8822468B2 (Novartis AG, priority 2008, dated 2014):

The molecules below were run against T1, cMET receptor tyrosine kinase (GST-cMET (969-1390)) (Homo sapiens, UniProt P08581) (assay: EPK cMET profiling assay (LanthaScreen TR-FRET antibody based kinase phosphorylation assay)). Conditions: purified recombinant GST-cMET (969-1390), 2 μM ATP, 50 nM Fluorescein-PolyEAY, 60 minutes at room temperature; read-out: c-Met IC50.
T1 construct: made in house
Format: biochemical
Method in brief: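 Compounds tested at eight final concentrations from 10 down to 0.003 µM against affinity-purified GST-cMET (969-1390, 0.3 nM) with 2 µM ATP and 50 nM fluorescein-PolyEAY in Tris buffer with MgCl2 and MnCl2, 1 h at room temperature. After EDTA stop, phosphoproduct detected by LanthaScreen TR-FRET with Tb-PY20 antibody, end-point measurement.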

T1 sequence (P08581 969-1390): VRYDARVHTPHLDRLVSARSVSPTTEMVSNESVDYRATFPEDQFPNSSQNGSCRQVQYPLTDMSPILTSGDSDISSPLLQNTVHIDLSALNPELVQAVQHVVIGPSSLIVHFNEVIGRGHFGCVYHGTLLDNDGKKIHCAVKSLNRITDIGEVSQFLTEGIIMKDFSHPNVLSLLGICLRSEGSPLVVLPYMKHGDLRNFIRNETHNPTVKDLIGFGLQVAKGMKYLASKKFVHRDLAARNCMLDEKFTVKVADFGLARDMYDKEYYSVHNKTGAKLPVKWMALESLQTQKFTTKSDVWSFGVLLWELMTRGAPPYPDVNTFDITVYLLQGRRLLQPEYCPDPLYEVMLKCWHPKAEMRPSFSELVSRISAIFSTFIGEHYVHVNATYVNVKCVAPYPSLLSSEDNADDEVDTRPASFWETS

Compared with `O[C@H]1CCN(c2ccc3ncc(Cc4ccc5ncccc5c4)n3n2)C1` [Example 107, (S)-1-(3-Quinolin-6-ylmethyl-imidazo[1,2-b]pyridazin-6-yl)-pyrrolidin-3-ol], `O[C@@H]1CCN(c2ccc3ncc(Cc4ccc5ncccc5c4)n3n2)C1` [Example 108, (R)-1-(3-Quinolin-6-ylmethyl-imidazo[1,2-b]pyridazin-6-yl)-pyrrolidin-3-ol] is 2-fold lower in IC50: 20 nM for the first, 9.8 nM for the second.

`O=C1CCN(c2ccc3ncc(Cc4ccc5ncccc5c4)n3n2)CCN1` [Example 109, 1-(3-Quinolin-6-ylmethyl-imidazo[1,2-b]pyridazin-6-yl)-[1,4]diazepan-5-one] and `O=C1CCN(c2ccc3ncc(Cc4ccc5ncccc5c4)n3n2)CC1` [Example 120, 1-(3-Quinolin-6-ylmethyl-imidazo[1,2-b]pyridazin-6-yl)-piperidin-4-one] are within 1.5-fold of each other in IC50: 62 nM for the first, 69 nM for the second.

Going from `c1cnc2ccc(Cc3cnc4ccc(N5CCC6(CC5)OCCO6)nn34)cc2c1` [Example 110, 6-[6-(1,4-Dioxa-8-aza-spiro[4.5]dec-8-yl)-imidazo[1,2-b]pyridazin-3-ylmethyl]-quinoline] to `F[C@@H]1CCN(c2ccc3ncc(Cc4ccc5ncccc5c4)n3n2)C1` [Example 124, 6-[6-((R)-3-fluoro-pyrrolidin-1-yl)-imidazo[1,2-b]pyridazin-3-ylmethyl]-quinoline], the IC50 rises from 42 nM to 180 nM (4.3-fold). The first is the more potent here.

Going from `CC1CCCCN1c1ccc2ncc(Cc3ccc4ncccc4c3)n2n1` (centres unmarked) [Example 111, 6-[6-(2-Methyl-piperidin-1-yl)-imidazo[1,2-b]pyridazin-3-ylmethyl]-quinoline] to `F[C@H]1CCN(c2ccc3ncc(Cc4ccc5ncccc5c4)n3n2)C1` [Example 125, 6-[6-((S)-3-Fluoro-pyrrolidin-1-yl)-imidazo[1,2-b]pyridazin-3-ylmethyl]-quinoline], the IC50 falls from 340 nM to 130 nM (2.6-fold).

Going from `Clc1cccc(Sc2ccc3ncc(Cc4ccc5ncccc5c4)n3n2)c1` [Example 112, 6-[6-(3-Chloro-phenylsulfanyl)-imidazo[1,2-b]pyridazin-3-ylmethyl]-quinoline] to `Clc1cccc(Oc2ccc3ncc(Cc4ccc5ncccc5c4)n3n2)c1` [Example 113, 6-[6-(3-Chloro-phenoxy)-imidazo[1,2-b]pyridazin-3-ylmethyl]-quinoline], the IC50 falls from 220 nM to 84 nM (2.6-fold).

Compared with `FC(F)(F)CNc1ccc2ncc(Cc3ccc4ncccc4c3)n2n1` [Example 114, (3-Quinolin-6-ylmethyl-imidazo[1,2-b]pyridazin-6-yl)-(2,2,2-trifluoro-ethyl)-amine], `FC(F)(F)c1cccc(Nc2ccc3ncc(Cc4ccc5ncccc5c4)n3n2)c1` [Example 127, (3-Quinolin-6-ylmethyl-imidazo[1,2-b]pyridazin-6-yl)-(3-trifluoromethyl-phenyl)-amine] is 1.6-fold higher in IC50: 56 nM for the first, 90 nM for the second. The first is the more potent here.

First: c1cnc2ccc(Cc3cnc4ccc(-n5ccnc5)nn34)cc2c1 [Example 115, 6-(6-Imidazol-1-yl-imidazo[1,2-b]pyridazin-3-ylmethyl)-quinoline]
Second: c1cnc2ccc(Cc3cnc4ccc(-n5cccn5)nn34)cc2c1 [Example 134, 6-(6-Pyrazol-1-yl-imidazo[1,2-b]pyridazin-3-ylmethyl)-quinoline]
The IC50 of the first is 6-fold lower: 95 nM for the first, 570 nM for the second. The first is the more potent here.

Going from `Cc1nccn1-c1ccc2ncc(Cc3ccc4ncccc4c3)n2n1` [Example 116, 6-[6-(2-Methyl-imidazol-1-yl)-imidazo[1,2-b]pyridazin-3-ylmethyl]-quinoline] to `Cc1cn(-c2ccc3ncc(Cc4ccc5ncccc5c4)n3n2)cn1` [Example 118, 6-[6-(4-Methyl-imidazol-1-yl)-imidazo[1,2-b]pyridazin-3-ylmethyl]-quinoline], the IC50 falls from 980 nM to 220 nM (4.5-fold).

First: c1ccc(CN2CCC(Nc3ccc4ncc(Cc5ccc6ncccc6c5)n4n3)C2)cc1 (centres unmarked) [Example 117, (1-Benzyl-pyrrolidin-3-yl)-(3-quinolin-6-ylmethyl-imidazo[1,2-b]pyridazin-6-yl)-amine]
Second: c1ccc(Nc2ccc3ncc(Cc4ccc5ncccc5c4)n3n2)cc1 [Example 122, Phenyl-(3-quinolin-6-ylmethyl-imidazo[1,2-b]pyridazin-6-yl)-amine]
The IC50 of the first is 8.6-fold higher: 630 nM for the first, 73 nM for the second.

Going from `Clc1cccc(Nc2ccc3ncc(Cc4ccc5ncccc5c4)n3n2)c1` [Example 121, (3-Chloro-phenyl)-(3-quinolin-6-ylmethyl-imidazo[1,2-b]pyridazin-6-yl)-amine] to `COc1cccc(Nc2ccc3ncc(Cc4ccc5ncccc5c4)n3n2)c1` [Example 140, (3-Methoxy-phenyl)-(3-quinolin-6-ylmethyl-imidazo[1,2-b]pyridazin-6-yl)-amine], the IC50 rises from 20 nM to 310 nM (16-fold).

Compared with `CCOc1ccc2ncc(Cc3ccc4ncccc4c3)n2n1` [Example 123, 6-(6-ethoxy-imidazo[1,2-b]pyridazin-3-ylmethyl)-quinoline], `CCn1nccc1Nc1ccc2ncc(Cc3ccc4ncccc4c3)n2n1` [Example 132, (2-Ethyl-2H-pyrazol-3-yl)-(3-quinolin-6-ylmethyl-imidazo[1,2-b]pyridazin-6-yl)-amine] is 1.7-fold lower in IC50: 87 nM for the first, 50 nM for the second. The second is the more potent here.

First: c1cnc2ccc(Cc3cnc4ccc(Nc5ccc(CN6CCCCC6)cc5)nn34)cc2c1 [Example 126, (4-Piperidin-1-ylmethyl-phenyl)-(3-quinolin-6-ylmethyl-imidazo[1,2-b]pyridazin-6-yl)-amine]
Second: Fc1ccc(Nc2ccc3ncc(Cc4ccc5ncccc5c4)n3n2)cc1Cl [Example 137, (3-Chloro-4-fluoro-phenyl)-(3-quinolin-6-ylmethyl-imidazo[1,2-b]pyridazin-6-yl)-amine]
The IC50 of the first is 6.2-fold lower: 16 nM for the first, 100 nM for the second.

Compared with `Clc1ccccc1Nc1ccc2ncc(Cc3ccc4ncccc4c3)n2n1` [Example 128, (2-Chloro-phenyl)-(3-quinolin-6-ylmethyl-imidazo[1,2-b]pyridazin-6-yl)-amine], `Clc1cccc(Nc2ccc3ncc(Cc4ccc5ncccc5c4)n3n2)c1Cl` [Example 136, (2,3-Dichloro-phenyl)-(3-quinolin-6-ylmethyl-imidazo[1,2-b]pyridazin-6-yl)-amine] is 12-fold higher in IC50: 29 nM for the first, 350 nM for the second.

Compared with `c1cncc(Nc2ccc3ncc(Cc4ccc5ncccc5c4)n3n2)c1` [Example 129, Pyridin-3-yl-(3-quinolin-6-ylmethyl-imidazo[1,2-b]pyridazin-6-yl)-amine], `c1cnc2ccc(Cc3cnc4ccc(Nc5ccncn5)nn34)cc2c1` [Example 131, Pyrimidin-4-yl-(3-quinolin-6-ylmethyl-imidazo[1,2-b]pyridazin-6-yl)-amine] is 2.6-fold higher in IC50: 69 nM for the first, 180 nM for the second.

First: CN(c1cccc(Cl)c1)c1ccc2ncc(Cc3ccc4ncccc4c3)n2n1 [Example 138, (3-Chloro-phenyl)-methyl-(3-quinolin-6-ylmethyl-imidazo[1,2-b]pyridazin-6-yl)-amine]
Second: CS(=O)(=O)c1cccc(Nc2ccc3ncc(Cc4ccc5ncccc5c4)n3n2)c1 [Example 139, (3-Methanesulfonyl-phenyl)-(3-quinolin-6-ylmethyl-imidazo[1,2-b]pyridazin-6-yl)-amine]
The IC50 of the first is 7.4-fold higher: 960 nM for the first, 130 nM for the second.

First: [2H]C([2H])(c1ccc2ncccc2c1)c1cnc2ccc(Cl)nn12 [Example 142, 6-[(6-Chloro-imidazo[1,2-b]pyridazin-3-yl)-dideutero-methyl]-quinoline]
Second: [2H]C([2H])(c1ccc2ncccc2c1)c1cnc2ccc(-c3cnn(C)c3)nn12 [Example 143, 6{Dideutero-[6-(1-methyl-1H-pyrazol-4-yl)-imidazo[1,2-b]pyridazin-3-ylmethyl]}-quinoline]
The IC50 of the first is 4.8-fold higher: 210 nM for the first, 44 nM for the second.

Compared with `O=C(NCCN1CCCC1)c1ccc(-c2ccc3ncc(Cc4ccc5ncccc5c4)n3n2)cc1Cl` [Example 144, 2-Chloro-N-(2-pyrrolidin-1-yl-ethyl)-4-(3-quinolin-6-ylmethyl-imidazo[1,2-b]pyridazin-6-yl)benzamide], `OCCN1CCC(n2cc(-c3ccc4ncc(Cc5cc6cccnc6cc5F)n4n3)cn2)CC1` [Example 147, 2-(4-{4-[3-(7-Fluoro-quinolin-6-ylmethyl)-imidazo[1,2-b]pyridazin-6-yl]-pyrazol-1-yl}-piperidin-1-yl)-ethanol] is 26-fold higher in IC50: 3.2 nM for the first, 82 nM for the second. The first is the more potent here.

First: CN1CC(n2cc(-c3ccc4ncc(Cc5cc6cccnc6cc5F)n4n3)cn2)C1 [Example 146, 7-Fluoro-6-{6-[1-(1-methyl-azetidin-3-yl)-1H-pyrazol-4-yl]-imidazo[1,2-b]pyridazin-3-ylmethyl}-quinoline]
Second: CCN1CCC(n2cc(-c3ccc4ncc(Cc5cc6cccnc6cc5F)n4n3)cn2)CC1 [Example 148, 6-{6-[1-(1-Ethyl-piperidin-4-yl)-1H-pyrazol-4-yl]-imidazo[1,2-b]pyridazin-3-ylmethyl}-7-fluoro-quinoline]
The IC50 of the first is 4.2-fold higher: 68 nM for the first, 16 nM for the second. The second is the more potent here.

Going from `Fc1cc2ncccc2cc1Cc1cnc2ccc(-c3cnn(C4CCN(CC(F)(F)F)CC4)c3)nn12` [Example 149, 7-Fluoro-6-(6-{1-[1-(2,2,2-trifluoro-ethyl)-piperidin-4-yl]-1H-pyrazol-4-yl}-imidazo[1,2-b]pyridazin-3-ylmethyl)-quinoline] to `C=C(c1ccc2ncccc2c1)c1cnc2ccc(-c3cnn(C)c3)nn12` [Example 155, 6-{1-[6-(1-Methyl-1H-pyrazol-4-yl)-imidazo[1,2-b]pyridazin-3-yl]-vinyl}-quinoline], the IC50 rises from 31 nM to 860 nM (28-fold).

`Cn1cc(-c2ccc3ncc(Cc4ccc5[nH]ncc5c4)n3n2)cn1` [Example 150, 3-(1H-Indazol-5-ylmethyl)-6-(1-methyl-1H-pyrazol-4-yl)-imidazo[1,2-b]pyridazine] and `Cn1cc(-c2ccc3ncc([C@H](O)c4ccc5ncccc5c4)n3n2)cn1` [Example 151, (R)-[6-(1-Methyl-1H-pyrazol-4-yl)-imidazo[1,2-b]pyridazin-3-yl]-quinolin-6-yl-methanol] are within 1.5-fold of each other in IC50: 56 nM for the first, 64 nM for the second.

With `Cn1cc(-c2ccc3ncc([C@@H](O)c4ccc5ncccc5c4)n3n2)cn1` [Example 152, (S)-[6-(1-Methyl-1H-pyrazol-4-yl)-imidazo[1,2-b]pyridazin-3-yl]-quinolin-6-yl-methanol] the IC50 was 890 nM.
